In brackets after ≈: the same amount, converted by molar mass. Where two headings read alike, the source gives them in different places.
Legend:
[1] = test system: Akata cells; assay: dNTP pools in Akata cells (enzymatic method); conditions: 100 μg/ml vesnarinone
Method: After a 10 min incubation on ice, the supernatant containing dNTPs was removed, frozen and evaporated with a rotary evaporator. The residue was dissolved in 100 μl of H2 O, and a 10 μl aliquot of this solution was used for the measurement of dNTP pool.
More specifically, 10 μl of the sample or a dNTP standard solution was mixed with 40 μl of the reaction buffer comprising 62.5 mMTris-HCl (pH 7.8), 0.625 mM DTT, 0.125 mg/ml calf thymus DNA (Sigma), 0.625 mg/ml BSA, 10 mM MgCl2, 6.25 μM three dNTPs, and 5.0 μCi/ml [^3 H]dATP (ICN, Costa Mesa, Calif.), for measurement of dTTP, dCTP, and dGTP, or [^3 H]dTTP (ICN), for measurement of dATP. The reaction solution was then mixed with 1.0 unit of E. coli DNA polymerase I (Boehringer Mannheim), and incubated for 40 min at 37° C. After completion of the reaction, the mixture was applied to Whatman DE-81 paper filters and radioactivity was determined using a liquid scintillation counter after three washes with 0.35M Na2 HPO4 (pH 7.5). Amounts of dNTP in the samples were calculated according to the calibration curves estimated by a set of standard dNTP samples.
In parallel, to measurement of the content of dNTPs in the untreated Akata cells after release, the dNTP pool in anti-IgG treated Akata cells was also measured in the same manner.

[2] = test system: thymidine kinase; assay: Thymidine kinase assay, vesnarinone added in vitro; assay type: biochemical; conditions: vesnarinone up to 100 μg/ml
Method: 5.0 μl of the kinase extract was incubated at 37° C. with 35 µl of kinase reaction buffer comprising 150 mM phosphate (pH 7.5), 20 mM ATP, 20 mM MgCl2, 40 mM KCl, 1.0 mM DTT, 10 mM NaF and 20 μM [^3 H]thymidine (6.7 Ci/mmole, ICN) for 5 or 15 min. The reaction was terminated by placing on ice, and an addition of 4.0 μl of 0.5M EDTA (pH 8.0). For measurement of dTTP-resistant thymidine kinase activity, a kinase reaction buffer additionally containing 100 μM dTTP (Pharmacia) was used.
The amount of phosphorylated [^3 H]thymidine derivatives formed during the reaction was determined by applying the reaction mixtures onto Whatman DE-81 paper filters, which were then washed four times in 1.0 mM ammoniumformate (pH 8.0), and once in ethanol before drying and liquid scintillation counting.

[3] = test system: U937 cells; assay: [3H]thymidine uptake in U937 cells within 1 min; assay type: cell-based, human; conditions: 0-250 μM vesnarinone or 0-1000 nM dipyridamole
Method: Dipyridamole was prepared as a 50 mM stock solution dissolved in ethanol.

[4] = test system: CMV strain AD169; assay: CMV plaque reduction assay in MRC5 cells; assay type: cell-based; conditions: Human betaherpesvirus 5, AD169, MRC5, 168 h
Method: More specifically, subconfluent monolayers of MRC5 cells (Biowhittaker, Walkersville, Md.) in 12-well tissue culture plates were exposed to a suspension of a 1:500 dilution of stock virus (CMV strain AD169; ATCC No. VR-538) in Eagles Minimal Essential Medium (MEM) supplemented with 2.0% (v/v) fetal bovine serum, for 2 hr at 37° C. to allow for virus absorption. The fluid containing unabsorbed virus was then removed, and the cell layer rinsed with Eagles MEM without serum.
The minimum compound concentration that reduces plaque production by 50% (MIC50) was calculated from single compound assays by using a regression analysis program for semilog curve fitting.
The following formula of additivity, which is appropriate for inhibitors affecting different sites, was used.

[5] = test system: CHO cells; assay: [3H]adenosine / [3H]adenine transport in CHO cells; conditions: 0-750 μM vesnarinone or 0-100 μM dipyridamole, 1 min pulse
[6] = test system: human T cells; assay: [3H]thymidine incorporation by PHA-stimulated human T cells; assay type: cell-based; conditions: 10 μg/ml PHA 48 hrs, 0-250 μM vesnarinone, 6 hrs pulse
Method: More specifically, human primary T cells were separated from peripheral blood obtained by leukopheresis of healthy donors. Mononuclear cell suspensions were prepared by Ficoll-Hypaque gradient centrifugation, and T cells were obtained by E-rosette enrichment as described by Kumagai et al, J. Cell. Physiol., 137:329 (1988).
Then, 1.0 μCi of [^3 H]thymidine (6.7 Ci/mmole, ICN), was added to 2.0×10^6 cells (100 μl), and the cells were pulse-labeled for 6 hrs.

[7] = test system: human T cells; assay: Cell numbers of PHA-stimulated human T cells over 120 hrs; assay type: cell-based; conditions: 10 μg/ml PHA, 0-120 hrs; 250 μM vesnarinone, 15 nM aphidicolin or 100 μM deferoxamine
Method: Next, the effects of the above-described drugs on cell proliferation were evaluated over a period of 120 hrs.

[8] = test system: human T cells; assay: Cellular DNA content by flow cytometry (propidium iodide); assay type: cell-based; conditions: within 48 hrs; 250 μM vesnarinone, 15 nM aphidicolin or 100 μM deferoxamine
Method: Next, cellular DNA content was evaluated over the 0-120 hrs treatment period. More specifically, 10^6 T cells treated in the same manner as described above, were fixed with 70% (v/v) ethanol at 4° C. overnight, centrifuged and washed with phosphate buffered saline (PBS). The fixed cells were incubated with 0.5 ml of 0.25 mg/ml ribonuclease (Sigma, St. Louis, Mo.) in PBS at 37° C. for 10 min. The cell suspension was mixed with 0.5 ml of a 50 μg/ml propidium iodide (Calbiochem, La Jolla, Calif.) solution in PBS, and after 60 min analyzed by flow cytometry (EPICS Profile, Coulter, Hialeah, Fla.), collecting red fluorescence (>600 nm) with 488 nm excitation.

[9] = 31 μg/ml vesnarinone in overlay medium
[10] = MTT cell viability of MRC5 cells; assay type: cell-based; conditions: human, mrc5 cells, read-out: MTT Cell Viability (% of control)
Method: More specifically, 5.0 μg/ml of MTT in Eagles MEM supplemented with 2.0% (v/v) fetal bovine serum was added to each well, and incubated at 37° C. for 6 hr. The cells were then solubilized by adding 30% (w/v) SDS in 0.02N HCl. The cultures were incubated overnight at 37° C. Then, the optical density was measured at 570 nm on a spectrophotometer.

[11] = cited from earlier work
[12] = test system: thymidine kinase; assay: Thymidine kinase activity in extracts of treated Akata cells; assay type: cell-based; conditions: 100 μg/ml vesnarinone
Method: The pellet of frozen cells was suspended in 100 μl of kinase extraction buffer comprising 50 mM Tris (pH 8.0), 50 mM KCl, 1.0 mM MgCl2, 1.0 mM ATP, 1.0 mM DTT, 5.0% (v/v) glycerol, 80 μg/ml aprotinin, 40 μM leupeptin and 1.0 mM PMSF, and incubated on ice for 30 min after a brief sonication. The nuclei were removed by high speed centrifugation for 15 min and the supernatant (kinase extract) was aliquoted and stored at -70° C. The protein concentration of the kinase extract (about 4.0 mg/ml) was determined using standard Bradford Reagent (Bio-Rad Protein Assay Kit, Bio-Rad Laboratories, Hercules, Calif.), with BSA as a protein standard.
5.0 μl of the kinase extract was incubated at 37° C. with 35 µl of kinase reaction buffer comprising 150 mM phosphate (pH 7.5), 20 mM ATP, 20 mM MgCl2, 40 mM KCl, 1.0 mM DTT, 10 mM NaF and 20 μM [^3 H]thymidine (6.7 Ci/mmole, ICN) for 5 or 15 min. The reaction was terminated by placing on ice, and an addition of 4.0 μl of 0.5M EDTA (pH 8.0). […]
The amount of phosphorylated [^3 H]thymidine derivatives formed during the reaction was determined by applying the reaction mixtures onto Whatman DE-81 paper filters, which were then washed four times in 1.0 mM ammoniumformate (pH 8.0), and once in ethanol before drying and liquid scintillation counting. […]

[13] = test system: Raji cells; assay: [3H]adenosine / [3H]adenine transport in Raji cells; conditions: 0-750 μM vesnarinone or 0-100 μM dipyridamole, 1 min pulse
[14] = test system: PHA-activated human T lymphocytes; assay: Accumulation of phosphorylated [3H]thymidine / [3H]AZT in PHA-activated human T lymphocytes; assay type: cell-based; conditions: 0, 75 or 250 μM vesnarinone; 0-120 min
Text: Similar results were obtained when using U937 cells, in place of the PHA-activated human T lymphocytes.

SMILES: COc1ccc(C(=O)N2CCN(c3ccc4c(c3)CCC(=O)N4)CC2)cc1OC [vesnarinone, 3,4-dihydro-6-[4-(3,4-dimethoxybenzoyl)-1-piperazinyl]-2(1H)-quinoline]
- cellular content of dATP and dGTP ([1]; 13 hrs after DMSO release, without anti-IgG): displayed progressive reductions 13 hrs after release in the presence of vesnarinone
- level of dTTP in anti-IgG treated cells ([1]; 20 hrs after anti-IgG): partially suppressed in the presence of vesnarinone
- cellular content of dCTP ([1]; after DMSO release): remained low in the presence or absence of vesnarinone
- cellular content of dTTP ([1]; after DMSO release, without anti-IgG): the levels of dTTP remained quite low
- thymidine kinase activity, drug added to in vitro assay [2]: did not display any inhibition of the thymidine kinase activity
- uptake of thymidine [3]: inhibited the uptake of thymidine in a dose-dependent manner
- inhibition at 30 µg/mL ([4]; read-out: efficacy against CMV plaque formation): 91.5%
- EC50 ([4]; single compound assay, regression analysis, read-out: MIC50 (minimum concentration that reduces plaque production by 50%)): 24 µg/mL (≈ 60.7 µM)
- [3H]adenosine and [3H]adenine transport [5]: inhibitory effects on nucleoside and nucleobase transport in vitro were observed within the therapeutic range
- [3H]thymidine incorporation into DNA [6]: inhibits [^3 H]thymidine incorporation into DNA in a dose-dependent manner
- cell proliferation (cell number) [7]: inhibited cell proliferation when compared to control cultures, but increases in cell number were nonetheless observed
- entry into S and G2/M phases (cellular DNA content) [8]: a certain proportion of the cells entered both S and G2/M phases of the cell cycle
- precipitate observed in culture [9]: A small amount of precipitate was observed at 31 μg/ml of vesnarinone
- viability ([10]; vesnarinone 3.88 μg/ml alone): 100%
- viability ([10]; vesnarinone 7.75 μg/ml alone): 98%
- viability ([10]; vesnarinone 15.5 μg/ml alone): 98%
- viability ([10]; vesnarinone 31 μg/ml alone): 90%
- therapeutic range in vivo [11]: 2 to 80 µM
- increase in dTTP-resistant thymidine kinase ([12]; 100 μM dTTP in reaction): partially suppressed by vesnarinone treatment
- increase in whole thymidine kinase activity in anti-IgG treated cells ([12]; without dTTP): partially inhibited in the presence of vesnarinone
- [3H]adenosine and [3H]adenine transport [13]: inhibitory effects on nucleoside and nucleobase transport in vitro were observed within the therapeutic range
- accumulation of phosphorylated AZT [14]: augmented the accumulation of phosphorylated AZT
- accumulation of phosphorylated [3H]thymidine [14]: delayed the accumulation of phosphorylated [^3 H]thymidine

Source: patent US5670520A, “Method for inhibiting virus replication in mammalian cells using carbostyil derivatives” (Otsuka Pharmaceutical Co., Ltd., priority 1996, dated 1997)
